In US8492418B2, “Method of treating schizophrenia prodrome” (Yale University, priority 2005, dated 2013):
Where two headings read alike, the source gives them in different places.

Legend:
[1] = test system: chronic patients with persistent negative symptoms (schizophrenia); settings: 157 chronic patients, four sites, adjunctive treatment vs placebo; cited from earlier work
[2] = molecular target: glycine binding site of the NMDA receptor (Homo sapiens, UniProt Q05586); settings: partial agonist; cited from earlier work
[3] = test system: acutely exacerbated patients (schizophrenia); settings: 65 acutely exacerbated patients, in addition to antipsychotic; cited from earlier work
[4] = test system: prodromal patients (schizophrenia prodrome); test: ongoing unpublished open label trial of ethyl-EPA, design nearly identical to the glycine pilot study; type: in vivo, human; settings: 8 weeks, n=7
Text: Group SOPS change analysis. […] The effect sizes observed with glycine are substantially larger than those observed in my parallel studies with other medications (Table 2). Data for the placebo and olanzapine samples shown are from the published double blind randomized comparison of olanzapine vs placebo (Woods et al., 2003). […] The very large differences between the glycine effect sizes and the placebo effect sizes provide strong support for efficacy. The large differences between the glycine effect sizes and the olanzapine effect sizes are also impressive.

[5] = test system: prodromal patients (schizophrenia prodrome)
Text: I therefore treated 10 patients meeting criteria for the schizophrenia prodrome with the NMDA […] glycine, used alone without antipsychotic medication. […] To my knowledge, this represents the first attempt to use direct or indirect NMDA/glycine agonists for patients with the schizophrenia prodrome.
The inventor of the present invention enrolled 10 prodromal patients in an eight-week open label trial of oral glycine. The patients were seven males and three females, whose mean±sd age was 17.3±3.3 years. All ten patients met schizophrenia prodrome diagnostic criteria, attenuated positive symptom subgroup, according to the Structured Interview for Prodromal Syndromes (Miller et al., 2002). The mean Scale of Prodromal Symptoms (SOPS) total score at baseline was 39.7, and the positive and negative subscale score means were respectively 11.3 and 12.4 (Table 1).
Glycine was administered orally as powder mixed with water at a dose titrated to 0.4 g/kg BID by week two. Concomitant medications were continued so long as there had been no dose adjustments in the eight weeks prior to enrollment and the patient continued to meet prodromal symptomatic criteria at baseline. Efficacy was assessed using the Scale of Prodromal Symptoms (SOPS). The SOPS consists of 19 items, each scored 0-6, and yields a total score and positive symptom (5 items), negative symptom (six items), disorganization (4 items), and general symptom (4 items) subscale scores.
Categorical outcomes. […] These criteria required all five positive symptom ratings to be below the prodromal range (2 or below).
Group SOPS change analysis. […] Data for the placebo and olanzapine samples shown are from the published double blind randomized comparison of olanzapine vs placebo (Woods et al., 2003). Data for ethyl-EPA (an omega-3 fatty acid) are from an ongoing unpublished open label trial that follows a design nearly identical to the current glycine pilot study.
To accomplish this we modified for the one sample case the sequential monitoring method of O'Brien and Fleming that protects the overall alpha from […] due to multiple looks (Woods and McGlashan, 2002). […] Analyses were planned every 5 patients.

prodromal patients = settings: risperidone plus cognitive therapy plus usual care; 59 patients randomized; cited from earlier work
[6] = 8 weeks, n=10, baseline score as covariate
[7] = 8 weeks, open label glycine, n=10
[8] = endpoint (LOCF) minus baseline, 8 weeks, n=10
[9] = oral glycine titrated to 0.4 g/kg BID, 8 weeks, LOCF, n=10

NC1CONC1=O [D-cycloserine, 4-aminoisoxazolidin-3-one, reference compound]
difference among treatment groups [1]: no significant differences overall among groups | activation relative to that seen with glycine, D-alanine or D-serine [2]: 40-60%

N[C@H](CO)C(=O)O [D-serine]
separation from placebo [3]: did not separate from placebo

CC/C=C\C/C=C\C/C=C\C/C=C\C/C=C\CCCC(=O)OCC [Ethyl-EPA, ethyl-EPA]
SOPS LOCF within group effect size, DIS [4]: −0.05 | SOPS LOCF within group effect size, GEN [4]: −0.17 | SOPS LOCF within group effect size, NEG [4]: 0.24 | SOPS LOCF within group effect size, POS [4]: 0.47 | SOPS LOCF within group effect size, TOTAL [4]: 0.18

NCC(=O)O [Glycine, glycine]
difference among treatment groups [1]: no significant differences overall among groups | group SOPS change, LOCF analysis ([5]; 8 weeks, n=10): improved significantly as a group on the total score and on all four subscales | group SOPS change, MMRM analysis ([5]; 8 weeks, n=10): improved significantly as a group on the total score and on 3/4 subscales | MMRM-based within group SOPS improvement, DIS [5, 6]: 3.9 ± 2.2 | MMRM-based within group SOPS improvement, GEN [5, 6]: 4.1 ± 3.5 | MMRM-based within group SOPS improvement, NEG [5, 6]: 3.0 ± 5.2 | MMRM-based within group SOPS improvement, POS [5, 6]: 7.4 ± 3.2 | MMRM-based within group SOPS improvement, TOTAL [5, 6]: 18.2 ± 9.9 | SOPS LOCF within group effect size, DIS [5, 7]: 1.05 | SOPS LOCF within group effect size, GEN [5, 7]: 1.12 | SOPS LOCF within group effect size, NEG [5, 7]: 0.74 | SOPS LOCF within group effect size, POS [5, 7]: 1.10 | SOPS LOCF within group effect size, TOTAL [5, 7]: 1.39 | conversion to psychosis ([5]; 10 glycine-treated patients, 8 weeks): None of the glycine-treated patients converted to psychosis | sequential monitoring vs historical placebo (sufficiency) ([5]; O'Brien and Fleming method modified for one sample): crossed the decision boundary for sufficiency after 10 patients | SOPS DIS score, baseline mean ([5]; baseline, before glycine, disorganization subscale, n=10): 6.5 | SOPS GEN score, baseline mean ([5]; baseline, before glycine, general symptom subscale, n=10): 9.5 | SOPS TOTAL score, baseline mean ([5]; baseline, before glycine, n=10): 39.7 | SOPS NEG score, baseline mean ([5]; baseline, before glycine, negative symptom subscale, n=10): 12.4 | SOPS POS score, baseline mean ([5]; baseline, before glycine, positive symptom subscale, n=10): 11.3 | SOPS DIS endpoint change, mean [5, 8]: −3.1 | SOPS GEN endpoint change, mean [5, 8]: −3.5 | SOPS NEG endpoint change, mean [5, 8]: −3.0 | SOPS POS endpoint change, mean [5, 8]: −5.7 | SOPS TOTAL endpoint change, mean [5, 8]: −15.3 | early remission criteria met (all five positive symptom ratings 2 or below) ([5]; of the seven completers, during 8 weeks on glycine): three met early remission criteria | SOPS DIS score, endpoint (LOCF) mean [5, 9]: 3.4 | SOPS GEN score, endpoint (LOCF) mean [5, 9]: 6.0 | SOPS NEG score, endpoint (LOCF) mean [5, 9]: 9.4 | SOPS POS score, endpoint (LOCF) mean [5, 9]: 5.6 | SOPS TOTAL score, endpoint (LOCF) mean [5, 9]: 24.4

Cc1nc2n(c(=O)c1CCN1CCC(c3noc4cc(F)ccc34)CC1)CCCC2 [risperidone]
six month conversion to psychosis rate (prodromal patients): 9.7%

CNCC(=O)O [sarcosine]
separation from placebo [3]: did
